Laboratory results reported in US10759781B2, “Substituted guanidine derivatives” (UBE INDUSTRIES, LTD., priority 2015, dated 2020).
Structures can show the parent of a compound that is named as a salt.

Molecular target: T1, Human VAP-1 enzyme (Homo sapiens, UniProt Q16853)
T1 construct: purchased R&D Systems, Inc
T1 sequence (Q16853 1-763): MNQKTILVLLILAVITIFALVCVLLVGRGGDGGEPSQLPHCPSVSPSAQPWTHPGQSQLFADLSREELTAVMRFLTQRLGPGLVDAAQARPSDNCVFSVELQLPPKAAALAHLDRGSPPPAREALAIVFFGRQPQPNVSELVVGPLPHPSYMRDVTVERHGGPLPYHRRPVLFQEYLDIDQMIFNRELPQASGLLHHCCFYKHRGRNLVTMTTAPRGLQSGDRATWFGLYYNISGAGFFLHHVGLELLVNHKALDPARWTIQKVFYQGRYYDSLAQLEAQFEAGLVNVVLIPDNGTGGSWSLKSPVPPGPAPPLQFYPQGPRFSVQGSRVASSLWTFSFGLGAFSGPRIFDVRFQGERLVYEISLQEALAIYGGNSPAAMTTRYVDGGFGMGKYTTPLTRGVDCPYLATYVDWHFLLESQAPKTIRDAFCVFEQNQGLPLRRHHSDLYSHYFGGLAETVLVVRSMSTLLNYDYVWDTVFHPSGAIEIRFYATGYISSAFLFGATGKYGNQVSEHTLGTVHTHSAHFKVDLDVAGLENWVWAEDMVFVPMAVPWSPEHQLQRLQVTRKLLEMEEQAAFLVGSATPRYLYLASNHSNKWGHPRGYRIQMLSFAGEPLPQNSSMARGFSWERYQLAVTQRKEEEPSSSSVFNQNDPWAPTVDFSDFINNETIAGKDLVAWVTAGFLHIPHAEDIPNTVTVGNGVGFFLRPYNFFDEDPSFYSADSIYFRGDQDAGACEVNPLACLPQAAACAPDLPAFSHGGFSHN
Experiment: Human VAP-1 enzyme inhibition test
Assay type: biochemical
Settings: 1 h; compound 30 nM; 14C-benzylamine 100 μM; read-out: inhibition ratio (human VAP-1 enzyme)
Procedure: Human VAP-1 enzyme inhibition test
This test was conducted by modifying the method of P. H. Yu et al. (Diabetologia 40 1243 (1997)). Human VAP-1 enzyme (R&D Systems, Inc.) was pre-incubated in a 96-well plate with the compound dissolved in dimethylsulfoxide at room temperature for 20 minutes. Next, in a solution to the final volume of 200 μL, the enzyme reaction solution was incubated with ^14C-benzylamine (final concentration 100 μM) at 37° C. for 1 hour. The reaction was terminated by the addition of 100 μL of 2 M citric acid solution to the reaction solution. The oxidative product was extracted using a toluene/ethyl acetate mixture and the radioactivity was measured with a liquid scintillation counter. The inhibition ratio of the compound was calculated using the following equation. Inhibition ratio={1−[VAP-1 enzyme activity after treatment with the compound]/[VAP-1 enzyme activity in the presence of dimethylsulfoxide alone without the compound]}×100

## N=C(N)NC(=O)OCc1cccc(-c2cnc(N3CC(=NOCC(F)F)C3)nc2)c1F [Example 6, 3-(2-{3-[(2,2-Difluoroethoxy)imino]azetidin-1-yl}pyrimidin-5-yl)-2-fluorobenzyl carbamimidoylcarbamate]
  inhibition at 0.03 µM: ≥ 50%

## N=C(N)NC(=O)OCc1cccc(-c2cnc(N3CC(=NOCC(F)(F)F)C3)nc2)c1F [Example 7, 2-Fluoro-3-(2-{3-[(2,2,2-trifluoroethoxy)imino]azetidin-1-yl}pyrimidin-5-yl)benzyl carbamimidoylcarbamate]
  inhibition at 0.03 µM: ≥ 50%

## N=C(N)NC(=O)OCc1cccc(-c2cnc(N3CC(=NOCCCF)C3)nc2)c1F [Example 8, 2-Fluoro-3-(2-{3-[(3-fluoropropoxy)imino]azetidin-1-yl}pyrimidin-5-yl)benzyl carbamimidoylcarbamate]
  inhibition at 0.03 µM: ≥ 50%

## CC(=O)OCCON=C1CN(c2ncc(-c3cccc(COC(=O)NC(=N)N)c3F)cn2)C1 [Example 25, 2-[({1-[5-(3-{[(Carbamimidoylcarbamoyl)oxy]methyl}-2-fluorophenyl)pyrimidin-2-yl]azetidin-3-ylidene}amino)oxy]ethyl acetate]
  inhibition at 0.03 µM: ≥ 50%

## CON=C1CN(c2ncc(-c3cccc(COC(=O)NC(=N)N)c3F)cc2C#N)C1 [Example 43, 3-{5-Cyano-6-[3-(methoxyimino)azetidin-1-yl]pyridin-3-yl}-2-fluorobenzyl carbamimidoylcarbamate]
  inhibition at 0.03 µM: ≥ 50%

## CON=C1CN(c2ncc(-c3cccc(COC(=O)NC(=N)N)c3F)cc2Cl)C1 [Example 44, 3-{5-Chloro-6-[3-(methoxyimino)azetidin-1-yl]pyridin-3-yl}-2-fluorobenzyl carbamimidoylcarbamate]
  inhibition at 0.03 µM: ≥ 50%

## CON=C1CN(c2ncc(-c3cccc(COC(=O)NC(=N)N)c3F)cc2C(F)F)C1 [Example 45, 3-{5-(Difluoromethyl)-6-[3-(methoxyimino)azetidin-1-yl]pyridin-3-yl}-2-fluorobenzyl carbamimidoylcarbamate]
  inhibition at 0.03 µM: ≥ 50%

## CON=C1CN(c2ncc(-c3cccc(COC(=O)NC(=N)N)c3F)cc2C2CC2)C1 [Example 46, 3-{5-Cyclopropyl-6-[3-(methoxyimino)azetidin-1-yl]pyridin-3-yl}-2-fluorobenzyl carbamimidoylcarbamate]
  inhibition at 0.03 µM: ≥ 50%

## CCc1cc(-c2cccc(COC(=O)NC(=N)N)c2F)cnc1N1CC(=NOC)C1 [Example 47, 3-{5-Ethyl-6-[3-(methoxyimino)azetidin-1-yl]pyridin-3-yl}-2-fluorobenzyl carbamimidoylcarbamate]
  inhibition at 0.03 µM: ≥ 50%

## COCc1cc(-c2cccc(COC(=O)NC(=N)N)c2F)cnc1N1CC(=NOC)C1 [Example 49, 2-Fluoro-3-{6-[3-(methoxyimino)azetidin-1-yl]-5-(methoxymethyl)pyridin-3-yl}benzyl carbamimidoylcarbamate]
  inhibition at 0.03 µM: ≥ 50%

## CON=C1CN(c2ncc(-c3cccc(COC(=O)NC(=N)N)c3F)cc2OC)C1 [Example 50, 2-Fluoro-3-{5-methoxy-6-[3-(methoxyimino)azetidin-1-yl]pyridin-3-yl}benzyl carbamimidoylcarbamate]
  inhibition at 0.03 µM: ≥ 50%

## N=C(N)NC(=O)OCc1cccc(-c2cnc(N3CC(=NOCCO)C3)nc2)c1F [Example 71, 2-Fluoro-3-(2-{3-[(2-hydroxyethoxy)imino]azetidin-1-yl}pyrimidin-5-yl)benzyl carbamimidoylcarbamate hydrochloride]
  inhibition at 0.03 µM: ≥ 50%

## N=C(N)NC(=O)OCc1cccc(-c2cnc(N3CC(=NOCCCCO)C3)nc2)c1F [Example 73, 2-Fluoro-3-(2-{3-[(4-hydroxybutoxy)imino]azetidin-1-yl}pyrimidin-5-yl)benzyl carbamimidoylcarbamate]
  inhibition at 0.03 µM: ≥ 50%

## N=C(N)NC(=O)OCc1cccc(-c2cnc(N3CC(=NOCCOCCO)C3)nc2)c1F [Example 74, 2-Fluoro-3-[2-(3-{[2-(2-hydroxyethoxy)ethoxy]imino}azetidin-1-yl)pyrimidin-5-yl]benzyl carbamimidoylcarbamate]
  inhibition at 0.03 µM: ≥ 50%

## N=C(N)NC(=O)OCc1cccc(-c2cnc(N3CC(=NOCC(CO)CF)C3)nc2)c1F (stereo not shown) [Example 75, 2-Fluoro-3-[2-(3-{[3-fluoro-2-(hydroxymethyl)propoxy]imino}azetidin-1-yl)pyrimidin-5-yl]benzyl carbamimidoylcarbamate]
  inhibition at 0.03 µM: ≥ 50%

## COC(CO)CCON=C1CN(c2ncc(-c3cccc(COC(=O)NC(=N)N)c3F)cn2)C1 (stereo not shown) [Example 76, 2-Fluoro-3-(2-{3-[(4-hydroxy-3-methoxybutoxy)imino]azetidin-1-yl}pyrimidin-5-yl)benzyl carbamimidoylcarbamate]
  inhibition at 0.03 µM: ≥ 50%

## CC(=O)OCC(CO)CON=C1CN(c2ncc(-c3cccc(COC(=O)NC(=N)N)c3F)cn2)C1 (stereo not shown) [Example 77, 3-[({1-[5-(3-{[(Carbamimidoylcarbamoyl)oxy]methyl}-2-fluorophenyl)pyrimidin-2-yl]azetidin-3-ylidene}amino)oxy]-2-(hydroxymethyl)propyl acetate]
  inhibition at 0.03 µM: ≥ 50%

## N=C(N)NC(=O)OCc1cccc(-c2cnc(N3CC(=NOCC(CO)CO)C3)nc2)c1F [Example 92, 2-Fluoro-3-[2-(3-{[3-hydroxy-2-(hydroxymethyl)propoxy]imino}azetidin-1-yl)pyrimidin-5-yl]benzyl carbamimidoylcarbamate]
  inhibition at 0.03 µM: ≥ 50%

## N=C(N)NC(=O)OCc1cccc(-c2cnc(N3CC(=NOCC(O)CO)C3)nc2)c1F (stereo not shown) [Example 93, 3-(2-{3-[(2,3-Dihydroxypropoxy)imino]azetidin-1-yl}pyrimidin-5-yl)-2-fluorobenzyl carbamimidoylcarbamate]
  inhibition at 0.03 µM: ≥ 50%

## COCC(CO)CON=C1CN(c2ncc(-c3cccc(COC(=O)NC(=N)N)c3F)cn2)C1 (stereo not shown) [Example 100, 2-Fluoro-3-[2-(3-{[3-hydroxy-2-(methoxymethyl)propoxy]imino}azetidin-1-yl)pyrimidin-5-yl]benzyl carbamimidoylcarbamate]
  inhibition at 0.03 µM: ≥ 50%

## N=C(N)NC(=O)OCc1cccc(-c2cnc(N3CC(=NOCC(F)CO)C3)c(F)c2)c1F (stereo not shown) [Example 103, 2-Fluoro-3-(5-fluoro-6-{3-[(2-fluoro-3-hydroxypropoxy)imino]azetidin-1-yl}pyridin-3-yl)benzyl carbamimidoylcarbamate]
  inhibition at 0.03 µM: ≥ 50%

## COCC(O)CON=C1CN(c2ncc(-c3cccc(COC(=O)NC(=N)N)c3F)cn2)C1 (stereo not shown) [Example 104, 2-Fluoro-3-(2-{3-[(2-hydroxy-3-methoxypropoxy)imino]azetidin-1-yl}pyrimidin-5-yl)benzyl carbamimidoylcarbamate]
  inhibition at 0.03 µM: ≥ 50%

## N=C(N)NC(=O)OCc1cccc(-c2cnc(N3CC(=NO)C3)c(F)c2)c1F [Example 107, 2-Fluoro-3-{5-fluoro-6-[3-(hydroxyimino)azetidin-1-yl]pyridin-3-yl}benzyl carbamimidoylcarbamate]
  inhibition at 0.03 µM: ≥ 50%

## CC(C)(C)OC(=O)CON=C1CN(c2ncc(-c3cccc(COC(=O)NC(=N)N)c3F)cn2)C1 [Example 108, tert-Butyl 2-[({1-[5-(3-{[(carbamimidoylcarbamoyl)oxy]methyl}-2-fluorophenyl)pyrimidin-2-yl]azetidin-3-ylidene}amino)oxy]acetate]
  inhibition at 0.03 µM: ≥ 50%

## CNC(=O)CON=C1CN(c2ncc(-c3cccc(COC(=O)NC(=N)N)c3F)cn2)C1 [Example 111, 2-Fluoro-3-[2-(3-{[2-(methylamino)-2-oxoethoxy]imino}azetidin-1-yl)pyrimidin-5-yl]benzyl carbamimidoylcarbamate]
  inhibition at 0.03 µM: ≥ 50%

## N=C(N)NC(=O)OCc1cccc(-c2cnc(N3CC(=NOCCC(N)=O)C3)nc2)c1F [Example 112, 3-(2-{3-[(3-Amino-3-oxopropoxy)imino]azetidin-1-yl}pyrimidin-5-yl)-2-fluorobenzyl carbamimidoylcarbamate]
  inhibition at 0.03 µM: ≥ 50%

## CNC(=O)CCON=C1CN(c2ncc(-c3cccc(COC(=O)NC(=N)N)c3F)cn2)C1 [Example 113, 2-Fluoro-3-[2-(3-{[3-(methylamino)-3-oxopropoxy]imino}azetidin-1-yl)pyrimidin-5-yl]benzyl carbamimidoylcarbamate]
  inhibition at 0.03 µM: ≥ 50%

## CCOC(=O)CCCON=C1CN(c2ncc(-c3cccc(COC(=O)NC(=N)N)c3F)cn2)C1 [Example 114, Ethyl 4-[({1-[5-(3-{[(carbamimidoylcarbamoyl)oxy]methyl}-2-fluorophenyl)pyrimidin-2-yl]azetidin-3-ylidene}amino)oxy]butanoate]
  inhibition at 0.03 µM: ≥ 50%
